Values of other authors, collected in US20230398128A1, “PREFERRED ORAL TESTOSTERONE UNDECANOATE THERAPY TO ACHIEVE TESTOSTERONE REPLACEMENT TREATMENT” (Marius Pharmaceuticals LLC, priority 2021, published 2023).

Conditions: for increase in ambulatory SBP: previous testosterone studies

SMILES	increase in ambulatory SBP [mmHg]	increase in ambulatory systolic BP (previously reported study, subjects receiving antihypertensive medication) [mmHg]
CCCCCCC(=O)O[C@H]1CC[C@H]2[C@@H]3CCC4=CC(=O)CC[C@]4(C)[C@H]3CC[C@]12C [testosterone enanthate]	3.7	–
CCCCCCCCCCC(=O)O[C@H]1CC[C@H]2[C@@H]3CCC4=CC(=O)CC[C@]4(C)[C@H]3CC[C@]12C [testosterone undecanoate (oral), testosterone undecanoate]	4.9	5.5
